Assay results: ChEMBL document CHEMBL1201862, “PubChem BioAssay data set” (2004)
Where “and” joins values, the source holds several entries; their conditions need not be identical. Equal entries are not always repeated.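 How tested: cells in 96-well plates exposed to compound for 48 hours at five concentrations. The concentration for 50% growth inhibition is given as GI50.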 Calls of active or inactive are those of the source. No stated cut-off is given here; in the data, active = GI50 up to about 1.1 µM and inactive = higher.

How the values were obtained:
Experiment in all cases: DTP human tumour cell line panel, 48 h
786-0 = system: 786-0
A498 = system: A498
CCRF-CEM = system: CCRF-CEM
COLO 205 = system: COLO 205
DU-145 = system: DU-145
EKVX = system: EKVX
HOP-62 = system: HOP-62
IGROV-1 = system: IGROV-1
MOLT-4 = system: MOLT-4
OVCAR-4 = system: OVCAR-4
OVCAR-5 = system: OVCAR-5
SF-295 = system: SF-295
SK-MEL-2 = system: SK-MEL-2
SNB-19 = system: SNB-19
SNB-75 = system: SNB-75
SW-620 = system: SW-620
U-251 = system: U-251
UACC-62 = system: UACC-62
HCT-15 = system: HCT-15

Row | SMILES | GI50 (786-0) | GI50 (A498) | GI50 (CCRF-CEM) | GI50 (COLO 205) | GI50 (DU-145) | GI50 (EKVX) | GI50 (HOP-62) | GI50 (IGROV-1) | GI50 (MOLT-4) | GI50 (OVCAR-4) | GI50 (OVCAR-5) | GI50 (SF-295) | GI50 (SK-MEL-2) | GI50 (SNB-19) | GI50 (SNB-75) | GI50 (SW-620) | GI50 (U-251) | GI50 (UACC-62) | GI50 (HCT-15)
1 | Cc1cc(-c2cc(C)c(O)c(C(C)(C)C)c2)cc(C(C)(C)C)c1O | 10.7 µM (inactive) and 13.1 µM (inactive) | 9.4 µM (inactive) and 17.1 µM (inactive) | 5.69 µM (inactive) and 5.58 µM (inactive) | 11.1 µM (inactive) and 13.6 µM (inactive) | 15.2 µM (inactive) and 11.8 µM (inactive) | 14.8 µM (inactive) and 10.8 µM (inactive) | 17.8 µM (inactive) and 17.3 µM (inactive) | 20.8 µM (inactive) and 12 µM (inactive) | 5.79 µM (inactive) and 5.86 µM (inactive) | 12.4 µM (inactive) and 11.6 µM (inactive) | 14.5 µM (inactive) and 11.9 µM (inactive) | 9.82 µM (inactive) and 11.1 µM (inactive) | 6.31 µM (inactive) and 12.2 µM (inactive) | 14.6 µM (inactive) and 13.7 µM (inactive) | 14 µM (inactive) and 12.6 µM (inactive) | 16.4 µM (inactive) and 11 µM (inactive) | 13.6 µM (inactive) and 10.6 µM (inactive) | 13.3 µM (inactive) and 13.6 µM (inactive) | –
2 | O=C1OC(=O)C2C1C1C(c3ccccc3)=C(c3ccccc3)C2(O)C2C(=O)OC(=O)C12 (stereo not given) | 92.3 µM (inactive) | > 100 µM (inactive) | 37.5 µM (inactive) | > 100 µM (inactive) | – | > 100 µM (inactive) | > 100 µM (inactive) | > 100 µM (inactive) | 32.5 µM (inactive) | > 100 µM (inactive) | > 100 µM (inactive) | > 100 µM (inactive) | > 100 µM (inactive) | > 100 µM (inactive) | 27.9 µM (inactive) | 80.7 µM (inactive) | 52.1 µM (inactive) | > 100 µM (inactive) | > 100 µM
3 | Cc1nc2nn(C)cc2c(=O)n1/N=C/c1ccccc1 | > 100 µM (inactive) | > 100 µM (inactive) | > 100 µM (inactive) | > 100 µM (inactive) | – | > 100 µM (inactive) | > 100 µM (inactive) | > 100 µM (inactive) | > 100 µM (inactive) | > 100 µM (inactive) | > 100 µM (inactive) | > 100 µM (inactive) | > 100 µM (inactive) | > 100 µM (inactive) | > 100 µM (inactive) | > 100 µM (inactive) | > 100 µM (inactive) | > 100 µM (inactive) | > 100 µM
4 | Cc1cc2c(cc1C)[n+]([O-])c(C(=O)CC(=O)C(=O)Nc1ccccc1C)c(C)[n+]2[O-] | > 100 µM (inactive) | > 100 µM (inactive) | 40.7 µM (inactive) | 46.5 µM (inactive) | – | 33.8 µM (inactive) | > 100 µM (inactive) | > 100 µM (inactive) | > 100 µM (inactive) | > 100 µM (inactive) | > 100 µM (inactive) | > 100 µM (inactive) | > 100 µM (inactive) | > 100 µM (inactive) | > 100 µM (inactive) | > 100 µM (inactive) | > 100 µM (inactive) | > 100 µM (inactive) | > 100 µM
5 | O=C1C[C@@H]2[C@@H](CCC23CCCC3)N1 | > 100 µM (inactive) | > 100 µM (inactive) | > 100 µM (inactive) | > 100 µM (inactive) | – | > 100 µM (inactive) | > 100 µM (inactive) | > 100 µM (inactive) | > 100 µM (inactive) | > 100 µM (inactive) | > 100 µM (inactive) | > 100 µM (inactive) | > 100 µM (inactive) | > 100 µM (inactive) | > 100 µM (inactive) | > 100 µM (inactive) | > 100 µM (inactive) | > 100 µM (inactive) | > 100 µM
6 | Cc1ccc(NC(=O)CC/C(CC(=O)C(C)(C)C)=N/NC(=O)C(N)=O)cc1C | > 100 µM (inactive) | > 100 µM (inactive) | > 100 µM (inactive) | > 100 µM (inactive) | – | > 100 µM (inactive) | > 100 µM (inactive) | > 100 µM (inactive) | > 100 µM (inactive) | > 100 µM (inactive) | > 100 µM (inactive) | > 100 µM (inactive) | > 100 µM (inactive) | > 100 µM (inactive) | > 100 µM (inactive) | > 100 µM (inactive) | > 100 µM (inactive) | > 100 µM (inactive) | > 100 µM
7 | C[C@]12CCC3[C@@H](CC[C@@H]4c5nonc5CC[C@]34C)C1C/C(=N/O)C2=O (stereo not given in full) | > 100 µM (inactive) | > 100 µM (inactive) | 56.5 µM (inactive) | > 100 µM (inactive) | – | 52.5 µM (inactive) | > 100 µM (inactive) | > 100 µM (inactive) | 59.7 µM (inactive) | 76 µM (inactive) | > 100 µM (inactive) | 52.2 µM (inactive) | 1.53 µM (inactive) | > 100 µM (inactive) | 0.0885 µM (active) | > 100 µM (inactive) | > 100 µM (inactive) | 63.7 µM (inactive) | > 100 µM
8 | Oc1ccc(Br)cc1/C=N/c1c(NC2CCCCC2)oc2ccc(Br)cc12 | 37.8 µM (inactive) | 35.3 µM (inactive) | 4.1 µM (inactive) | > 10 µM (inactive) | 60.3 µM (inactive) | 45.1 µM (inactive) | 68.4 µM (inactive) | 56.4 µM (inactive) | 7.21 µM (inactive) | 38 µM (inactive) | 63.1 µM (inactive) | 47.4 µM (inactive) | – | > 100 µM (inactive) | 37.2 µM (inactive) | 35.3 µM (inactive) | 34.9 µM (inactive) | 38.6 µM (inactive) | 25.1 µM
9 | CC(C)Oc1ccc(CNC2=NCCO2)c2ccccc12 | 13.6 µM (inactive) | 10.2 µM (inactive) | 13.3 µM (inactive) | 16.4 µM (inactive) | 18.2 µM (inactive) | 15.1 µM (inactive) | 15.6 µM (inactive) | 12.6 µM (inactive) | 4.85 µM (inactive) | 13.9 µM (inactive) | 11.6 µM (inactive) | 13.7 µM (inactive) | – | 7.74 µM (inactive) | 18.2 µM (inactive) | 15.3 µM (inactive) | 13.6 µM (inactive) | 15.3 µM (inactive) | 15.6 µM
10 | O=C(N/C(=C/c1cccc([N+](=O)[O-])c1)c1nc2cc(Cl)ccc2[nH]1)c1ccccc1 | 15.7 µM (inactive) | 13 µM (inactive) | 1.07 µM (active) | 41.9 µM (inactive) | – | 3.14 µM (inactive) | 17.7 µM (inactive) | 4.53 µM (inactive) | 3.83 µM (inactive) | 17.4 µM (inactive) | 27.8 µM (inactive) | 36.9 µM (inactive) | 16.1 µM (inactive) | 36.3 µM (inactive) | 19.2 µM (inactive) | 5.55 µM (inactive) | 9.73 µM (inactive) | 5.4 µM (inactive) | 6.01 µM
11 | CCCCCCN(CCCCCC)C1=CC(=O)C(=O)c2ccccc21 | 16.7 µM (inactive) | 26.5 µM (inactive) | 14.9 µM (inactive) | 16.7 µM (inactive) | – | 14.6 µM (inactive) | 18.7 µM (inactive) | 17.2 µM (inactive) | 18.7 µM (inactive) | 15.4 µM (inactive) | 19.1 µM (inactive) | 15.7 µM (inactive) | 18.7 µM (inactive) | 16.1 µM (inactive) | 16.8 µM (inactive) | 14.2 µM (inactive) | 15.8 µM (inactive) | 16.5 µM (inactive) | 17.7 µM
12 | C[C@]12CCC3[C@@H](CC[C@@H]4c5nonc5CC[C@]34C)C1CCC2=O (stereo not given in full) | 23.8 µM (inactive) | 21.4 µM (inactive) | 21.8 µM (inactive) | 16.9 µM (inactive) | – | 19.9 µM (inactive) | 40.6 µM (inactive) | 40.6 µM (inactive) | 23.2 µM (inactive) | 23.8 µM (inactive) | 29.3 µM (inactive) | 24.1 µM (inactive) | 20.3 µM (inactive) | 40.4 µM (inactive) | 35.4 µM (inactive) | 37.2 µM (inactive) | 16 µM (inactive) | 17.3 µM (inactive) | 29.8 µM
13 | C=CC1=CSNN1 | > 100 µM (inactive) | > 100 µM (inactive) | > 100 µM (inactive) | > 100 µM (inactive) | – | > 100 µM (inactive) | > 100 µM (inactive) | > 100 µM (inactive) | > 100 µM (inactive) | > 100 µM (inactive) | > 100 µM (inactive) | > 100 µM (inactive) | > 100 µM (inactive) | > 100 µM (inactive) | > 100 µM (inactive) | > 100 µM (inactive) | > 100 µM (inactive) | > 100 µM (inactive) | > 100 µM
14 | CN(C)c1cccc(-c2cc(O)c3cc4c(cc3n2)OCO4)c1 | 0.262 µM (active) | 0.137 µM (active) | 0.204 µM (active) | 0.2 µM (active) | – | 25.6 µM (inactive) | 0.274 µM (active) | 0.625 µM (active) | 0.3 µM (active) | 0.705 µM (active) | 0.274 µM (active) | 0.136 µM (active) | 0.221 µM (active) | 0.365 µM (active) | 0.054 µM (active) | 0.124 µM (active) | 0.247 µM (active) | 0.136 µM (active) | 0.285 µM
15 | O=C1c2ccccc2C(=O)c2c(O)c(O)cc(O)c21 [PURPURIN] | 25.8 µM (inactive) | 31 µM (inactive) | 35 µM (inactive) | 34 µM (inactive) | – | 50.9 µM (inactive) | 23.7 µM (inactive) | 31.6 µM (inactive) | 34 µM (inactive) | 41 µM (inactive) | 80.7 µM (inactive) | 51.6 µM (inactive) | 21.2 µM (inactive) | 34.1 µM (inactive) | 85.9 µM (inactive) | 40.1 µM (inactive) | 35.6 µM (inactive) | 26.1 µM (inactive) | 36.5 µM
